Measured values as given in paper PMC10115808, “Parahydrogen-induced polarization allows 2000-fold signal enhancement in biologically active derivatives of the peptide-based drug octreotide” (Scientific Reports, 2023).
“Also recorded” adds a separate entry of the source.

Experiments:
A549 cells = experiment: Cell binding assay of TAMRA-conjugated octreotide variants on A549 cells (flow cytometry); set-up: species or system human; conditions: neat TAMRA versus fluorescence marked octreotide 1, Fig. S-23
Procedure: (§1) In order to check whether the modifications on the octreotide have an influence on its interaction with somatostatin receptors in living cells, a binding study on different human cell lines was performed. For the detection of the bound peptides, octreotide and the derivatives were further modified by attaching the fluorophore TAMRA to the N terminus. To prevent the fluorophore from interacting with the binding site of octreotide derivatives, a 4,7,10-trioxa-1,13-tridecanediamine succinate (TTDS) spacer was added between the peptide N terminus and the N-hydroxy succinimide (NHS)-activated fluorophore. Both, the linker and the fluorophore, were attached to the peptides by manual SPPS (Fig. 5).
(§2) Human lung cancer cells A549 and human embryonic kidney cells HEK293 were utilized for the binding studies. A549 are widely used in binding studies with somatostatin analogues[61],[62]. […]
(§3) A549 cells (DSMZ ACC 107) and HEK293 cell s (DSMZ ACC 308) were cultured in complete growth medium consisting of Dulbecco’s MEM with 10 % fetal bovine serum (FBS) and 1x penicillin/streptomycin. […] After incubation, the cells were washed three times with ice -cold PBS-F. Using a CytoFlexS flow cytometer, PE -fluorescence was measured. […]

HEK293 cells = experiment: Cell binding assay of TAMRA-conjugated octreotide variants on HEK293 cells (flow cytometry); set-up: species or system human; conditions: neat TAMRA versus fluorescence marked octreotide 1, Fig. S-24
Procedure: as §1, §2, §3

## TAMRA
A549 cells
  Binding efficiency (fluorescence) of TAMRA alone compared to TAMRA-linker-octreotide: about half the fluorescence; also recorded: about two times reduced binding efficiency
HEK293 cells
  Binding efficiency (fluorescence) of TAMRA alone compared to TAMRA-linker-octreotide: about half the fluorescence; also recorded: about two times reduced binding efficiency
